Values of other authors in US20120225789A1, “DNA REPAIR OR BRCA1-LIKE GENE SIGNATURE” (Baylor College of Medicine, priority 2009, published 2012).

Test system: mammary tumors in which BRCA1 protein has been lost
Conditions: mice spontaneously developing BRCA1-lost mammary tumors

| SMILES | response of mice to chemotherapy |
| --- | --- |
| N.N.[Cl][Pt][Cl] [cisplatin] | highly sensitive |
| COc1cccc2c1C(=O)c1c(O)c3c(c(O)c1C2=O)C[C@@](O)(C(=O)CO)C[C@@H]3O[C@H]1C[C@H](N)[C@H](O)[C@H](C)O1 [doxorubicin] | highly sensitive |
| CC(=O)O[C@@]12CO[C@@H]1C[C@H](O)[C@@]1(C)C(=O)[C@H](O)C3=C(C)[C@@H](OC(=O)[C@H](O)[C@@H](NC(=O)OC(C)(C)C)c4ccccc4)C[C@@](O)([C@@H](OC(=O)c4ccccc4)[C@H]21)C3(C)C [docetaxel] | resistance |
